Assay results published in patent publication US6352958B1, “Cycloimido-substituted benzofused heterocyclic herbicides” (FMC Corporation, priority 1997, dated 2002).

Columns and labels:
Format in all cases: in vivo
[1] = system: common chickweed (Stellaria media); test: Postemergence herbicidal activity, chickweed; details: rate of application 0.3 Kg/Ha, rated after 12-17 days
[2] = system: morningglory (Ipomea lacunosa or Ipomea hederacea); test: Preemergence herbicidal activity, morningglory; details: Rate of Application 0.3 Kg/Ha, examined after 12-17 days
[3] = system: Johnsongrass (Sorghum halepense); test: Postemergence herbicidal activity, johnsongrass; details: rate of application 0.3 Kg/Ha, rated after 12-17 days
[4] = system: common cocklebur (Xanthium strumarium L.); test: Preemergence herbicidal activity, cocklebur; details: Rate of Application 0.3 Kg/Ha, examined after 12-17 days
[5] = system: green foxtail (Setaria viridis); test: Postemergence herbicidal activity, green foxtail; details: rate of application 0.3 Kg/Ha, rated after 12-17 days
[6] = system: wheat (Triticum aestivum var. Lew); test: Preemergence herbicidal activity, wheat; details: Rate of Application 0.3 Kg/Ha, examined after 12-17 days
[7] = system: morningglory (Ipomea lacunosa or Ipomea hederacea); test: Postemergence herbicidal activity, morningglory; details: rate of application 0.3 Kg/Ha, rated after 12-17 days
[8] = system: velvetleaf (Abutilon theophrasti); test: Preemergence herbicidal activity, velvetleaf; details: Rate of Application 0.3 Kg/Ha, examined after 12-17 days
[9] = system: Johnsongrass (Sorghum halepense); test: Preemergence herbicidal activity, johnsongrass; details: Rate of Application 0.3 Kg/Ha, examined after 12-17 days
[10] = system: blackgrass (Aloepecurus myosuroides); test: Preemergence herbicidal activity, blackgrass; details: Rate of Application 0.3 Kg/Ha, examined after 12-17 days
[11] = system: green foxtail (Setaria viridis); test: Preemergence herbicidal activity, green foxtail; details: Rate of Application 0.3 Kg/Ha, examined after 12-17 days
[12] = system: common chickweed (Stellaria media); test: Preemergence herbicidal activity, chickweed; details: Rate of Application 0.3 Kg/Ha, examined after 12-17 days
[13] = system: wheat (Triticum aestivum var. Lew); test: Postemergence herbicidal activity, wheat; details: rate of application 0.3 Kg/Ha, rated after 12-17 days
[14] = system: field corn (Zea mays var. Pioneer 3732); test: Preemergence herbicidal activity, corn; details: Rate of Application 0.3 Kg/Ha, examined after 12-17 days
[15] = system: soybean (Glycine max var. Winchester); test: Postemergence herbicidal activity, soybean; details: rate of application 0.3 Kg/Ha, rated after 12-17 days
[16] = system: blackgrass (Aloepecurus myosuroides); test: Postemergence herbicidal activity, blackgrass; details: rate of application 0.3 Kg/Ha, rated after 12-17 days
[17] = system: soybean (Glycine max var. Winchester); test: Preemergence herbicidal activity, soybean; details: Rate of Application 0.3 Kg/Ha, examined after 12-17 days
[18] = system: velvetleaf (Abutilon theophrasti); test: Postemergence herbicidal activity, velvetleaf; details: rate of application 0.3 Kg/Ha, rated after 12-17 days
[19] = system: common cocklebur (Xanthium strumarium L.); test: Postemergence herbicidal activity, cocklebur; details: rate of application 0.3 Kg/Ha, rated after 12-17 days
[20] = system: field corn (Zea mays var. Pioneer 3732); test: Postemergence herbicidal activity, corn; details: rate of application 0.3 Kg/Ha, rated after 12-17 days

Row | Structure (SMILES) | Postemergence herbicidal activity (% control) STEME [1] | PREEMERGENCE HERBICIDAL ACTIVITY (% CONTROL) IPOSS [2] | Postemergence herbicidal activity (% control) SORHA [3] | PREEMERGENCE HERBICIDAL ACTIVITY (% CONTROL) XANPE [4] | Postemergence herbicidal activity (% control) SETVI [5] | PREEMERGENCE HERBICIDAL ACTIVITY (% CONTROL) WHT [6] | Postemergence herbicidal activity (% control) IPOSS [7] | PREEMERGENCE HERBICIDAL ACTIVITY (% CONTROL) ABUTH [8] | PREEMERGENCE HERBICIDAL ACTIVITY (% CONTROL) SORHA [9] | PREEMERGENCE HERBICIDAL ACTIVITY (% CONTROL) ALOMY [10] | PREEMERGENCE HERBICIDAL ACTIVITY (% CONTROL) SETVI [11] | PREEMERGENCE HERBICIDAL ACTIVITY (% CONTROL) STEME [12] | Postemergence herbicidal activity (% control) WHT [13] | PREEMERGENCE HERBICIDAL ACTIVITY (% CONTROL) CRN [14] | Postemergence herbicidal activity (% control) SOY [15] | Postemergence herbicidal activity (% control) ALOMY [16] | PREEMERGENCE HERBICIDAL ACTIVITY (% CONTROL) SOY [17] | Postemergence herbicidal activity (% control) ABUTH [18] | Postemergence herbicidal activity (% control) XANPE [19] | Postemergence herbicidal activity (% control) CRN [20]
1 | CC(F)c1cc2c(Cl)cc(F)c(-n3c(=O)cc(C(F)(F)F)n(C)c3=O)c2o1 (stereo not drawn) [Compound 235] | 100% | 100% | 100% | 100% | 100% | 90% | 100% | 100% | 100% | 80% | 100% | 100% | 100% | 100% | 100% | 100% | 100% | 100% | 100% | 100%
2 | Cn1c(C(F)(F)F)cc(=O)n(-c2c(F)cc(Cl)c3cc(C(N)=O)oc23)c1=O [Compound 273] | 90% | 100% | 100% | 100% | 100% | 80% | 100% | 100% | 100% | 90% | 100% | 100% | 60% | 90% | 95% | 80% | 100% | 100% | 100% | 95%
3 | C=Cc1cc2c(Cl)cc(F)c(-n3c(=O)cc(C(F)(F)F)n(C)c3=O)c2o1 [Compound 230] | 90% | 100% | 90% | 100% | 100% | 40% | 100% | 100% | 100% | 80% | 100% | 100% | 40% | 80% | 95% | 70% | 100% | 100% | 100% | 80%
